Experimental data as given in ChEMBL document CHEMBL1201862, “PubChem BioAssay data set” (2004).
Active and inactive are the calls of the source. Cut-off read from the data, not from the text of the source, for most assays here: actives have a measured EC50 and inactives only a lower limit.

Columns and labels:
[1] = NIH-3T3 fibroblast cytotoxicity, dose response, cytotoxicity control, cell-based, fluorescence, Alamar Blue, secondary assay (AID 2327); type: functional;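 note: NIH-3T3 mouse fibroblasts cultured with fluconazole at 8 µg/mL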
[2] = fluconazole-exposed Candida albicans growth modulators – fluorescence, retest, confirmation (AID 2467); type: functional, cell-based
[3] = molecular target: T1, Corticotropin-releasing factor receptor 2/Corticotropin-releasing factor-binding protein (Homo sapiens, UniProt P24387+Q13324); assay: Dose Response confirmation of uHTS hits for small molecule antagonists of the CRF-binding protein and CRF-R2 receptor complex.; type: functional; details: read-out: IC50_Mean
T1 sequence (Q13324 whole entry): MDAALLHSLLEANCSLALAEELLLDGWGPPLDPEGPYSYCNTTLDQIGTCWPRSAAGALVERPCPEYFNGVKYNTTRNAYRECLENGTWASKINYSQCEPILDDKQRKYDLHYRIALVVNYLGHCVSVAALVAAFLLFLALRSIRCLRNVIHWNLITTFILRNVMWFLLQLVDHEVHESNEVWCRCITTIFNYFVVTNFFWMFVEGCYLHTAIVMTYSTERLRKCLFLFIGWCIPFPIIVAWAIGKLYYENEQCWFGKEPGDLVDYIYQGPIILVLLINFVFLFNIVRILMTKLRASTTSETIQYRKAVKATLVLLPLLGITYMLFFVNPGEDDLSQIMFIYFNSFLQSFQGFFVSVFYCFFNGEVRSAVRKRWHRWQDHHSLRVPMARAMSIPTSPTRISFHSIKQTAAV
T1 sequence (P24387 whole entry): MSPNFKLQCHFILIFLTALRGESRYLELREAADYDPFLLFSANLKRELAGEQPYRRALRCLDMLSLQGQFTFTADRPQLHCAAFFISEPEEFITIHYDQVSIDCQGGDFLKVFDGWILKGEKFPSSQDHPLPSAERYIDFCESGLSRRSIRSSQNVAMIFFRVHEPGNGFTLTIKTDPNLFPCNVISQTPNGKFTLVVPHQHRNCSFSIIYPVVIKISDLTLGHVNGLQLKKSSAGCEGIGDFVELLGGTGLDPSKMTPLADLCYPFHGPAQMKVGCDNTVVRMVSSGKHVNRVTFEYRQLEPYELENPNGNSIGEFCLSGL

[4] = molecular target: T1, Corticotropin-releasing factor receptor 2/Corticotropin-releasing factor-binding protein; assay: activators of CRF receptor 2 with binding protein – uHTS hits, confirmation (AID 602473); type: functional; details: read-out: EC50_Mean
[5] = Luminescence Cell-Based Dose Confirmation HTS to Identify Activators of 5'UTR Stem-Loop Driven Alpha-Synuclein mRNA Translation in H4 Neuroglioblastoma Cells. [Related pubchem assays: 1829 (Project Summary), 1814 (Primary HTS)]; type: functional
[6] = Luminescence Cell-Based Dose Response HTS to Identify Activators of Luciferase Translation or Activity in H4 […] Cells. [Related pubchem assays: 1829 (Project Summary), 1814 (Primary HTS)]; type: functional
H4 = assay: Luminescence Cell-Based Dose Response HTS to Identify Activators of 5'UTR Stem-Loop Driven Prion Protein mRNA Translation in H4 Neuroglioblastoma Cells. [Related pubchem assays: 1829 (Project Summary), 1814 (Primary HTS)]; type: functional; details: Homo sapiens
H9c2 = assay: cells; type: functional, cell-based; details: Rattus norvegicus, H9c2, Myocardium;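 note: confirmatory concentration-response retest of ultra-high-throughput screening hits for modulation of myocardial damage; cell death induced by hydrogen peroxide oxidative stress; compound pretreatment for 60 min then peroxide exposure for 2 h; potency is for protecting the cells against peroxide damage rather than for killing them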
[7] = Trypanosoma cruzi growth suppression in host cells – NIH3T3 host cells, beta-gal luminescence, confirmation (AID 2044); type: functional, cell-based;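 note: intracellular parasites grown in NIH/3T3 mouse fibroblasts as host cells; luminescent beta-galactosidase reporter signal from transgenic T. cruzi replicating inside host cells; inhibitors lower the luminescence signal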
[8] = NIH3T3 cell viability loss – ATP luminescence, mouse fibroblasts, counter-screen, dose response (AID 2010); type: functional, cell-based;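 note: cells exposed to compound for about 90 hours before reading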
[9] = viability of uninfected HEp-2 cells – cell-based, HTS, cytotoxicity control for RSV inhibitor project, dose response (AID 2410); type: functional; details: human respiratory syncytial virus

Q: Which EC50 [1] does the source give for `Cc1cc(C(=O)Nc2ccccc2C(=O)O)ccc1NC(=O)COc1cccc([N+](=O)[O-])c1` here?
A: The EC50 was 22.8 µM (inconclusive).

Q: And the EC50 [2]?
A: Its EC50 is 3.79 µM (active).

Q: What does the source list for `CCOC(=O)C1(CC2CCCCO2)CCN(Cc2nccn2-c2ccc(OC)cc2)CC1` (stereo unspecified)?
A: IC50 [3]: > 47.1 µM (inactive); EC50 [4]: > 53 µM (inactive)

Q: Which EC50 [5] does the source give for `CCc1cc(C=C(Cl)Cl)oc(=O)c1C` here?
A: Its EC50 is 6.98 µM (active).

Q: And the EC50 [6]?
A: Its EC50 is 8.12 µM (active).

Q: What about the EC50 (H4) of the same molecule?
A: The EC50 was > 120 µM (not active).

Q: With `CC(=O)N1CCN(c2ccc(NC(=O)c3ccc(C(C)(C)C)cc3)cc2)CC1` as the molecule, how does the EC50 [1] read?
A: Its EC50 is > 160 µM (inactive).

Q: What about the EC50 [2] of the same molecule?
A: Its EC50 is 7.14 µM (active).

Q: What does the source list for `CC(=O)Nc1cc(C(N)=O)c(Cl)cc1Cl`?
A: IC50 [3]: > 47.1 µM (inactive); EC50 [4]: > 53 µM (inactive)

Q: What does the source list for `O=C(OCC(=O)c1cccs1)C1=COCCO1`?
A: EC50 [5]: 15.4 µM (active); EC50 [6]: 9.36 µM (active); EC50 (H4): 8.15 µM (active)

Q: Which EC50 [5] does the source give for `Cc1ccc(C(=O)c2c3ccccc3[n+]([O-])n2[C@@H](C)C(N)=O)cc1` here?
A: The EC50 was 6.39 µM (active).

Q: What about the EC50 [6] of the same molecule?
A: Its EC50 is 11.2 µM (active).

Q: What about the EC50 (H4) of the same molecule?
A: Its EC50 is 38 µM (active).

Q: With `Cn1c(=O)c2c(nc(NCc3cccnc3)n2Cc2cccc(C(F)(F)F)c2)n(C)c1=O` as the molecule, how does the IC50 (H9c2) read?
A: Its IC50 is 14 µM (active).

Q: With `CC(C)(C)OC(=O)N1CCC(NC(=O)c2[nH]cnc2C(=O)NCC(=O)OCc2ccccc2)CC1` as the molecule, how does the IC50 (H9c2) read?
A: The IC50 was 47 µM (inactive).

Q: Which IC50 (H9c2) does the source give for `CCC(=O)N1CCN(c2ccccc2NC(=O)c2ccc(-c3cccc([N+](=O)[O-])c3)o2)CC1` here?
A: Its IC50 is > 79 µM (inactive).

Q: For `CC(=O)Nc1ccc(S(=O)(=O)N2CCC(NC(C)=O)(c3cccc(F)c3)CC2)cc1`, which IC50 [3] is on record?
A: The IC50 was > 47.1 µM (inactive).

Q: And the EC50 [4]?
A: The EC50 was > 53 µM (inactive).

Q: Which EC50 [5] does the source give for `COc1ccc(CCC(=O)NCCS(=O)(=O)N2CCN(c3ccccc3OC)CC2)cc1` here?
A: Its EC50 is > 120 µM (not active).

Q: And the EC50 [6]?
A: The EC50 was > 120 µM (not active).

Q: What about the EC50 (H4) of the same molecule?
A: The EC50 was > 120 µM (not active).

Q: For `Cc1nn(C)c(=O)n1-c1ccc(OCc2ccccc2)cc1`, which EC50 [5] is on record?
A: Its EC50 is 8.8 µM (active).

Q: What about the EC50 [6] of the same molecule?
A: Its EC50 is 49.9 µM (active).

Q: And the EC50 (H4)?
A: The EC50 was 12.9 µM (active).

Q: With `COc1ccccc1-n1c(C)cc(SC)c(C(C)=O)c1=S` as the molecule, how does the EC50 [1] read?
A: The EC50 was > 150 µM (inactive).

Q: What about the EC50 [2] of the same molecule?
A: The EC50 was 14 µM (active).

Q: For `O=C(NCCCN1CCCCC1)c1ccc2c(=O)n(CCc3ccccc3)c(=O)[nH]c2c1`, which EC50 [5] is on record?
A: The EC50 was > 120 µM (not active).

Q: And the EC50 [6]?
A: Its EC50 is 12.2 µM (active).

Q: And the EC50 (H4)?
A: The EC50 was 93.9 µM (active).

Q: Which IC50 [3] does the source give for `Cc1ccc(NC(=O)/C(C#N)=C/c2cn(CC(=O)NCc3ccco3)c3ccccc23)cc1C` here?
A: The IC50 was > 47.1 µM (inactive).

Q: And the EC50 [4]?
A: Its EC50 is > 53 µM (inactive).

Q: With `CC(C)n1c(N2CCN(C(=O)Nc3ccc(Cl)cc3)CC2)nc2ccccc21` as the molecule, how does the EC50 [1] read?
A: The EC50 was 140 µM (active).

Q: And the EC50 [2]?
A: Its EC50 is > 38 µM (not active).

Q: For `COc1cc2nc(SCc3ccc(Cl)cc3Cl)n(Cc3cccs3)c(=N)c2cc1OC`, which EC50 [1] is on record?
A: Its EC50 is > 160 µM (inactive).

Q: What about the EC50 [2] of the same molecule?
A: The EC50 was > 38 µM (not active).

Q: What about the EC50 [7] of the same molecule?
A: Its EC50 is 2.09 µM (active).

Q: What about the EC50 [8] of the same molecule?
A: The EC50 was > 60 µM (inconclusive).

Q: For `Clc1ccc(-c2[nH]nc3c2CCCC3)cc1`, which CC50 [9] is on record?
A: The CC50 was 37.1 µM (active).

Q: What about the EC50 [5] of the same molecule?
A: Its EC50 is 10.4 µM (active).

Q: What about the EC50 [6] of the same molecule?
A: The EC50 was 16.2 µM (active).

Q: And the EC50 (H4)?
A: Its EC50 is 54.4 µM (active).

Q: With `CN(CC(=O)NCc1ccc(F)cc1)S(=O)(=O)c1ccc(Br)s1` as the molecule, how does the IC50 [3] read?
A: The IC50 was > 47.1 µM (inactive).

Q: And the EC50 [4]?
A: The EC50 was > 53 µM (inactive).

Q: Which IC50 [3] does the source give for `O=C(NCCO)c1c(O)c2cccc3c2n(c1=O)CC3` here?
A: Its IC50 is > 47.1 µM (inactive).

Q: And the EC50 [4]?
A: The EC50 was > 53 µM (inactive).

Q: With `C=CCn1c(Oc2ccccc2)nc2c1c(=O)n(C)c(=O)n2C` as the molecule, how does the EC50 [4] read?
A: The EC50 was > 53 µM (inactive).

Q: Which results are given for `Cc1ccc2nc(SCC(=O)N3CCOCC3)[nH]c2c1`?
A: IC50 [3]: > 47.1 µM (inactive); EC50 [4]: > 53 µM (inactive)

Q: For `CCOc1ccccc1N(CC(=O)N1CCC(C(N)=O)CC1)S(=O)(=O)c1ccc(SC)cc1`, which IC50 [3] is on record?
A: The IC50 was > 47.1 µM (inactive).

Q: What about the EC50 [4] of the same molecule?
A: Its EC50 is > 53 µM (inactive).

Q: Which IC50 (H9c2) does the source give for `CCc1nc2ccc(C(=O)NCc3cccs3)cn2c1N(C)Cc1nccs1` here?
A: The IC50 was 12.8 µM (active).

Q: For `CC(C)(C)C(=O)Nc1ccc(C(=O)N/N=C/c2ccccc2OC(=O)c2ccccc2)cc1`, which IC50 (H9c2) is on record?
A: The IC50 was 31.5 µM (inactive).
